{"source": "patent US20100222410A1", "about": "“Nuclease compositions and methods” (Massachusetts Institute of Technology, priority 2008, published 2010)", "key": {"YbeY": {"target": "T1, YbeY (Escherichia coli, UniProt P0A898)", "T1 construct": "His (N, cleaved yes); MBP (N, cleaved yes); made in house; host or cells: E. coli, pET28A vector, IPTG induction", "T1 sequence (P0A898 whole entry)": "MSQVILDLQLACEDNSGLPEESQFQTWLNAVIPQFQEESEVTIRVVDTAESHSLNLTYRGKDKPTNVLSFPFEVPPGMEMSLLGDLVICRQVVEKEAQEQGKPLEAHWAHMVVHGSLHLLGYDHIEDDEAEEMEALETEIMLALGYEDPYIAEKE", "test": "Inhibition of YbeY RNase activity in the in vitro cleavage assay (total rRNA substrate)", "assay_type": "biochemical, E. coli", "description": "(§1) In vitro cleavage assays. All YbeY RNase assays were carried out in 50 mM HEPES pH 7.5 in a 20 μl final volume and used 0.2 μg of purified YbeY or 8.0 μg of MBP-YbeY. For assays using total rRNA or folA mRNA as substrate, 800 ng of total E. coli rRNA or synthesized folA mRNA was incubated with YbeY or MBP-YbeY for 30′ at 37° C., separated on an agarose/synergel mix gel and stained with ethidium bromide. Where indicated EDTA was added to 50 mM and MgSO4 was added to 5 mM. For assays using ΔybeY mutant 70S ribosomes as substrate, 800 ng of ΔybeY mutant 70S ribosomes was incubated with YbeY for the indicated time at 37° C., separated on an agarose/synergel mix gel and stained with ethidium bromide. For each reaction, 200 pmol of short RNA substrate was incubated with YbeY or MBP-YbeY for the indicated time at 37° C. Products were separated on denaturing PAGE. The ladder used for each substrate was made by alkaline hydrolysis of the respective substrate. A synthesized short rRNA of defined length was used as a reference for numerating the ladder."}, "E. coli": {"test_system": "E. coli", "test": "17S rRNA accumulation after treatment of E. coli (total rRNA analysis)", "assay_type": "cell-based", "description": "Polysome and rRNA analysis. Polysome profiles were obtained as described previously. rRNA was extracted from logarithmically growing cultures or separated ribosome fractions using Qiagen RNeasy Mini Kit. 16S and 23 rRNA were separated using Synergel/Agarose gel electrophoresis as described previously. […] The site-specific RNase H cleavage assay was performed as described previously followed by Northern hybridization using primers specific for the mature 3′termini of 16S, 23S, and 5S, respectively. 100 ng of total MC4100 or mutant RNA were used for each assay. All reactions were separated on denaturing polyacrylamide gels."}, "total E. coli rRNA": {"test_system": "total E. coli rRNA", "test": "In vitro cleavage assay, total rRNA as substrate", "assay_type": "biochemical", "conditions": "MBP-YbeY at four times the molar concentration of YbeY", "description": "as §1"}, "folA mRNA": {"test_system": "folA mRNA", "test": "In vitro cleavage assay, defined mRNA as substrate", "assay_type": "biochemical", "description": "as §1"}, "[1]": {"test_system": "double stranded or single stranded DNA", "test": "YbeY activity on DNA", "assay_type": "biochemical", "conditions": "in vitro"}, "[2]": {"test_system": "purified 70S ribosomes isolated from the ΔybeY mutant", "test": "In vitro cleavage assay, 70S ribosomes as substrate", "assay_type": "biochemical, E. coli", "conditions": "over time, absence of Mg^2+", "description": "as §1"}, "[3]": {"test_system": "short, sequence-defined, RNA substrates", "test": "In vitro cleavage assay, short sequence-defined RNA substrates", "assay_type": "biochemical", "conditions": "for position of major cleavage product from the beginning of the duplex: partially dsRNA substrate with ssRNA 3′ terminus", "description": "as §1"}, "[4]": {"test_system": "16S rRNA 3′ terminus mimic", "test": "YbeY activity on 16S rRNA 3′ terminus mimics", "assay_type": "biochemical, E. coli", "description": "as §1"}, "[5]": {"conditions": "partially duplexed RNA substrate with 5′ ssRNA terminus, FIG. 3G"}}, "data": [{"molecule": "O=C(O)CN(CCN(CC(=O)O)CC(=O)O)CC(=O)O", "note": "[EDTA, ethylenediaminetetraacetic acid]", "values": [{"measurement": "degradation of total rRNA by YbeY in presence of EDTA", "setting": "YbeY; EDTA added to 50 mM, 30′ at 37° C.", "result": "inhibited"}]}, {"molecule": "[Mg+2]", "note": "[Mg^+2, magnesium(II)]", "values": [{"measurement": "Mg^+2 concentration that inhibits YbeY's RNase activity", "setting": "YbeY; in vitro, MgSO4 added", "result": "≥ 5", "unit": "mM"}]}, {"molecule": "CC1(C)S[C@@H]2[C@H](NC(=O)[C@H](N)c3ccccc3)C(=O)N2[C@H]1C(=O)O", "note": "[ampicillan]", "values": [{"measurement": "accumulation of 17S rRNA", "setting": "E. coli", "result": "does not cause the accumulation of 17S"}]}, {"molecule": "O=C(N[C@H](CO)[C@H](O)c1ccc([N+](=O)[O-])cc1)C(Cl)Cl", "note": "[chloramphenicol]", "values": [{"measurement": "accumulation of 17S rRNA", "setting": "E. coli", "result": "induce the rapid accumulation of 17S rRNA"}]}, {"molecule": "OO", "note": "[hydrogen peroxide]", "values": [{"measurement": "accumulation of 17S rRNA", "setting": "E. coli", "result": "does not cause the accumulation of 17S"}]}, {"molecule": "CN[C@@H]1[C@H](O)[C@H](NC)[C@H]2O[C@@]3(O)C(=O)C[C@@H](C)O[C@H]3O[C@@H]2[C@H]1O", "note": "[spectinomycin]", "values": [{"measurement": "accumulation of 17S rRNA", "setting": "E. coli", "result": "induce the rapid accumulation of 17S rRNA"}]}, {"molecule": "YbeY: E. coli UPF0054 family member, purified as MBP fusion, MBP removed by TEV protease cleavage; C-terminal FLAG tag", "values": [{"measurement": "RNase activity against total E. coli rRNA", "setting": "total E. coli rRNA", "result": "can degrade total E. coli rRNA"}, {"measurement": "degradation of a defined mRNA", "setting": "folA mRNA", "result": "can also degrade"}, {"measurement": "degradation of double stranded or single stranded DNA", "setting": "[1]", "result": "did not degrade"}, {"measurement": "degradation of 70S ribosomes", "setting": "[2]", "result": "effectively degraded"}, {"measurement": "cleavage of single-stranded RNA (ssRNA) substrate, short sequence of 16S rRNA", "setting": "[3]; FIG. 3C", "result": "cleaved"}, {"measurement": "cleavage of a perfect RNA duplex", "setting": "[3]; FIG. 3D", "result": "unable to cleave"}, {"measurement": "cleavage of hairpin substrate within the loop", "setting": "[3]; hairpin with perfectly paired blunt terminus, FIG. 3H", "result": "efficiently cleaved"}, {"measurement": "position of major cleavage product from the beginning of the duplex", "setting": "[3]; FIG. 3E", "result": "+1 bases"}, {"measurement": "position of major cleavage product from the beginning of the duplex", "setting": "[3]; FIG. 3F", "result": "+2 bases"}, {"measurement": "cleavage inside the duplex", "setting": "[3]; [5]", "result": "no cleavage events were observed"}, {"measurement": "position of major cleavage product from the duplexed end", "setting": "[3]; [5]", "result": "+2 bases"}, {"measurement": "position of the major YbeY cut", "setting": "[3]; third partially dsRNA substrate with free 3′ ssRNA terminus, different nucleotide sequence", "result": "flush with the dsRNA end"}, {"measurement": "cleavage of 50 nucleotide ssRNA 16S rRNA 3′ terminus mimic", "setting": "[4]; mimic alone, 4 μg of YbeY", "result": "cleaved this substrate to generate a mature 3′ terminus"}, {"measurement": "cleavage at the maturation site", "setting": "[4]; mimic paired with a short mRNA, flap like structure", "result": "enhance YbeY cleavage at the maturation site"}]}, {"molecule": "gentamycin", "values": [{"measurement": "accumulation of 17S rRNA", "setting": "E. coli", "result": "induce the rapid accumulation of 17S rRNA"}]}]}
